Test results from ChEMBL document CHEMBL1135708, “Synthesis of 1-(3,4-dihydroxy-5-nitrophenyl)-2-phenyl-ethanone and derivatives as potent and long-acting peripheral inhibitors of catechol-O-methyltransferase” (J Med Chem, 2002).

Key:
[1] = biological target: T1, Catechol O-methyltransferase (Rattus norvegicus) (UniProt P22734); test: Percent inhibition of Catechol O-methyltransferase activity in rat brain at dose of 30 mg/kg determined at 6 h after its administration; format: organism-based; set-up: dose 30 mg/kg
T1 sequence (whole entry): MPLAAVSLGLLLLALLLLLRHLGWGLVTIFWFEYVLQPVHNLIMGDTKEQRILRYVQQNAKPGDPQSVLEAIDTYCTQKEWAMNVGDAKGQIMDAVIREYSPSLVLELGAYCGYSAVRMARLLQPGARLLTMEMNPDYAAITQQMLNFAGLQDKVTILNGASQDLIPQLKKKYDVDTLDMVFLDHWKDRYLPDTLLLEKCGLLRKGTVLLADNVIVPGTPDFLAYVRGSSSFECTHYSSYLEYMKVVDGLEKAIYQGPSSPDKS

[2] = biological target: T1, Catechol O-methyltransferase (Rattus norvegicus); test: Percent inhibition of Catechol O-methyltransferase activity in rat liver at dose of 30 mg/kg determined at 6 hr after its administration; format: organism-based; set-up: dose 30 mg/kg

Compound	inhibition [1]	inhibition [2]
COc1ccc(CC(=O)c2cc(OC(C)=O)c(OC(C)=O)c([N+](=O)[O-])c2)cc1	25%	72%
CC(=O)Oc1cc(C(=O)C(C)c2ccccc2)cc([N+](=O)[O-])c1OC(C)=O (stereo not given)	44%	42%
CC(=O)Oc1cc(C(=O)Cc2ccc([N+](=O)[O-])cc2)cc([N+](=O)[O-])c1OC(C)=O	0%	49%
CC(=O)Oc1cc(C(=O)C(C)(C)c2ccccc2)cc([N+](=O)[O-])c1OC(C)=O	23%	19%
Cc1ccc(CC(=O)c2cc(O)c(O)c([N+](=O)[O-])c2)cc1	23%	83%
O=[N+]([O-])c1cc(/C(Cc2ccccc2)=N\O)cc(O)c1O	13%	48%
O=C(CC1CCCCC1)c1cc(O)c(O)c([N+](=O)[O-])c1	39%	72%
O=[N+]([O-])c1cc(CCc2ccccc2)cc(O)c1O	10%	0%
O=C(Cc1cccc2ccccc12)c1cc(O)c(O)c([N+](=O)[O-])c1	10%	70%
O=C(Cc1ccccc1C(=O)O)c1cc(O)c(O)c([N+](=O)[O-])c1	34%	39%
CC(=O)Oc1cc(C(=O)C(Br)c2ccccc2)cc([N+](=O)[O-])c1OC(C)=O (stereo not given)	20%	48%
O=C(Cc1ccc(-c2ccccc2)cc1)c1cc(O)c(O)c([N+](=O)[O-])c1	28%	78%
CC(=O)Oc1cc(C(=O)Cc2ccccc2[N+](=O)[O-])cc([N+](=O)[O-])c1OC(C)=O	20%	28%
O=C(Cc1ccc(Cl)cc1)c1cc(O)c(O)c([N+](=O)[O-])c1	12%	69%
O=c1oc(-c2cc(O)c(O)c([N+](=O)[O-])c2)cc2ccccc12	29%	15%
O=C(Cc1ccc2ccccc2c1)c1cc(O)c(O)c([N+](=O)[O-])c1	17%	83%
CC(=O)Oc1cc(C(=O)C(Cc2ccccc2)c2ccccc2)cc([N+](=O)[O-])c1OC(C)=O (stereo not given)	44%	63%
Cc1ccccc1CC(=O)c1cc(O)c(O)c([N+](=O)[O-])c1	33%	74%
CC(=O)Oc1cc(C(=O)C2(c3ccccc3)CCCCC2)cc([N+](=O)[O-])c1OC(C)=O	19%	14%
O=C(c1cc(O)c(O)c([N+](=O)[O-])c1)C(c1ccccc1)c1ccccc1	7%	13%
